Series [1] has as its system MCF7. Put plainly: Downregulation of ERalpha expression in human MCF7 cells measured after 24 hrs by Western blotting analysis. It is filed as functional, cell-based. To be noted: dose 0.5-5 µM, DDE = dose-dependent effect.
Series [2] has as its target T1, Ubiquitin carboxyl-terminal hydrolase 8 (Homo sapiens) (UniProt P40818).
T1 sequence (whole entry): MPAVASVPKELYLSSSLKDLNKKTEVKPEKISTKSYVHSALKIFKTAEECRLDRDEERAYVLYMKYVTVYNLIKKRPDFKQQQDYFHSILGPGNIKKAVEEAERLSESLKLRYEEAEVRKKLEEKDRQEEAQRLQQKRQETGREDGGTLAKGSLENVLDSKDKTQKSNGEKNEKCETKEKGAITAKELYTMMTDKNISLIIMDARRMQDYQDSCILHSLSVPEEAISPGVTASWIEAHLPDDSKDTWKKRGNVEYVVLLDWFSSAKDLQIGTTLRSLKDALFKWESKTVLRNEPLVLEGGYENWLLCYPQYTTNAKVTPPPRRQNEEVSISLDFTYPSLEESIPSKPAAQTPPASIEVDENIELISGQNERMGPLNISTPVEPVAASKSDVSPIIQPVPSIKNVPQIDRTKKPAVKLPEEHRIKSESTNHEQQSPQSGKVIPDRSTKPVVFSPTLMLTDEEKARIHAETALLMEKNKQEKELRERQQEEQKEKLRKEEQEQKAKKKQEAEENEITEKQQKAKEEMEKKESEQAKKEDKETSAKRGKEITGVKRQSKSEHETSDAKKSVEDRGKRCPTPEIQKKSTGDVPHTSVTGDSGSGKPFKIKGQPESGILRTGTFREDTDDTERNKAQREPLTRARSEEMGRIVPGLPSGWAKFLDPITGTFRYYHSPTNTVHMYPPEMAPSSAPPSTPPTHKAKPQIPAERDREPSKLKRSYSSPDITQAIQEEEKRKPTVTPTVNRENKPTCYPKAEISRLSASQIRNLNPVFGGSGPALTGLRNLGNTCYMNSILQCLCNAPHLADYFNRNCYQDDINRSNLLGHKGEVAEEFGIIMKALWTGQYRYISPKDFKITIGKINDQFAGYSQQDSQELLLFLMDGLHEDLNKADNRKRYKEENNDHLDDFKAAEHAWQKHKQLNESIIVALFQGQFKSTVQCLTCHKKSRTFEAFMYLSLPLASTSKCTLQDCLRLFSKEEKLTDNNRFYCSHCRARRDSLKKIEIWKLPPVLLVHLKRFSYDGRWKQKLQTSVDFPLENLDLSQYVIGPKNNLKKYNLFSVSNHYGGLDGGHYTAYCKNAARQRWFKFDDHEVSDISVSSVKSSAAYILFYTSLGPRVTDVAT
Put plainly: Inhibition of N-terminal His6-tagged USP8 catalytic domain (734 to 1110 residues) in HEK293T intact cells up to 100 uM in presence of HA-Ub-VS probe by HA antibody based Western blotting assay. Format: cell-based. A general note: Immunoblotting shows a protein as a band on a membrane.

Series [3] addresses T2, Ubiquitin carboxyl-terminal hydrolase 2 (Homo sapiens, UniProt O75604).
T2 sequence (O75604 whole entry): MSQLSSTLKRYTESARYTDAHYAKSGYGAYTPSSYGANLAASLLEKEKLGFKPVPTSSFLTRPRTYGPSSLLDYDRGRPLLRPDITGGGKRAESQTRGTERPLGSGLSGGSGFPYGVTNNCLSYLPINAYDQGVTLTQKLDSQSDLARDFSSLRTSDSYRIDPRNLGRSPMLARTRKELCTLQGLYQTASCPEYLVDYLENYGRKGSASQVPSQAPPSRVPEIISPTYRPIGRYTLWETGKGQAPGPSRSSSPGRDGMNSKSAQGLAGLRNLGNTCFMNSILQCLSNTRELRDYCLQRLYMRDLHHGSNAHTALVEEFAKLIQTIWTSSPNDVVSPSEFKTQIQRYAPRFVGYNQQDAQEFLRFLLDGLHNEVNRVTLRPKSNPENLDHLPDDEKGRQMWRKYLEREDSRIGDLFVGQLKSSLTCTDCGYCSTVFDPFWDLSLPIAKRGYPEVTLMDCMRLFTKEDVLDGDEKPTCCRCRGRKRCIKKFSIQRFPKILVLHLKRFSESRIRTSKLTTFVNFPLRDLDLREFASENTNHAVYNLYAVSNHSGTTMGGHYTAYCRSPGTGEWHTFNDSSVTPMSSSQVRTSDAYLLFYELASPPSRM
Put plainly: Inhibition of USP2 (267 to 599 residues) (unknown origin) catalytic domain expressed in Escherichia coli BL21 (DE3) cells using ubiquitin-rhodamine -110 as substrate incubated for 30 mins followed by substrate addition measured after 30 mins by ubiquitin-rhodamine-110 based fluorometric assay.

The subject of series [4] is MCF7. Put plainly: Induction of apoptosis in human MCF7 cells assessed as increase in apoptotic cells at 5 uM incubated for 12 hrs by AnnexinV-FITC/propidium iodide staining based flow cytometry relative to control (reference value: 2.00 %). Format: functional. For orientation: Flow cytometry measures light scatter and fluorescence of single cells or particles in a stream.

Series [5] concerns MCF7. Put plainly: Antitumor activity against human MCF7 cells xenografted in BALB/c mouse assessed as reduction of EGFR phosphorylation in tumor tissue at 5 to 20 mg/kg, ip administered via gavage every other day for 14 days by immunohistochemistry analysis. Format: functional, organism-based. To be noted: dose 5-20 mg/kg, time 14.0 day. For orientation: Xenograft models place foreign cells or tissue in a host animal.

Series [6] concerns MCF7. Put plainly: Antitumor activity against human MCF7 cells xenografted in BALB/c mouse assessed as inhibition of tumor growth at 20 mg/kg, ip administered via gavage every other day for 14 days. It is filed as functional, organism-based. As to conditions: time 14.0 day.
Series [7] deals with MCF7. Put plainly: Induction of apoptosis in human MCF7 cells assessed as reduction in EGFR expression level up to 5 uM incubated for 24 hrs by Western blotting analysis. It is filed as functional, cell-based.
The target in series [8] is T3, Ubiquitin carboxyl-terminal hydrolase 8 (Homo sapiens, UniProt P40818).
T3 sequence (P40818 whole entry): T1 sequence (whole entry)
Put plainly: Binding affinity to N-terminal His6-tagged USP8 catalytic domain (734 to 1110 residues) (unknown origin) expressed in Escherichia coli BL21 (DE3) cells by surface plasmon resonance method.

Series [9] can be described thus: Toxicity in BALB/c mouse xenografted with human MCF7 cells assessed as effect on kidney at 5 to 20 mg/kg, […] every other day measured after 14 days by hematoxylin and eosin staining based analysis. It is filed as organism-based. As to conditions: in vivo, 336 h, dose 5-20 mg/kg, time 14 day.
In series [10] the test system is MCF7. Put plainly: Induction of apoptosis in human MCF7 cells assessed as increase in apoptotic cells at 0.2 uM incubated for 12 hrs by AnnexinV-FITC/propidium iodide staining based flow cytometry relative to control (reference value: 2.00 %). Format: functional.
Series [11] is described as follows: Toxicity in BALB/c mouse xenografted with human MCF7 cells assessed as effect on heart at 5 to 20 mg/kg, […] every other day measured after 14 days by hematoxylin and eosin staining based analysis. Format: organism-based. As to conditions: in vivo, 336 h, dose 5-20 mg/kg, time 14 day.
A further series is filed under the species Homo sapiens. Put plainly: Selectivity ratio of IC50 for USP2 (unknown origin) catalytic domain to IC50 for USP8 (unknown origin) catalytic domain.
Series [12] can be described thus: Toxicity in BALB/c mouse xenografted with human MCF7 cells assessed as effect on aspartate aminotransferase level at 5 to 20 mg/kg, […] every other day measured after 14 days. It is filed as organism-based. To be noted: in vivo, 336 h, dose 5-20 mg/kg, time 14 day.
The test system of series [13] is MCF7. Put plainly: Downregulation of progesterone receptor expression in human MCF7 cells assessed as protein stability by measuring reduction in half life measured up to 24 hrs in presence of cycloheximide by Western blotting analysis. Format: functional, cell-based.

Activity calls are given as the source filed them. The rule behind the calls is not given here.

For orientation: IC50 means the concentration needed to halve the response being measured. One may read the Kd as the free concentration of one partner at which half of the binding sites on the other are occupied at equilibrium, for simple one-to-one binding. As to `Cc1n[nH]c(C)c1Oc1c(O)cc(O)c2c(=O)cc(-c3ccc(N4CCN(c5ccccn5)CC4)cc3)oc12`, the Activity entry in the series with MCF7 [1] is “Dde”; with MCF7 [4], 14.46%; in series [9], “Non-Toxic”; with MCF7 [10], 1.9%; in series [11] it was “Non-Toxic”; in [12], “Non-Toxic”. The inhibition result in series [2] was “Active”. This compound gave a half-inhibitory concentration (IC50) in series [3] of 50 µM. The result with MCF7 [5], with MCF7 [6], with MCF7 [7] and in the series on MCF7 [13] was Active. Binding in [8] was put at a Kd of 4.7 µM. Also, in the series listed under Homo sapiens, the Ratio IC50 came to 49.

Values taken from ChEMBL document CHEMBL5131570, “Discovery of Potent Small-Molecule USP8 Inhibitors for the Treatment of Breast Cancer through Regulating ERα Expression” (J Med Chem, 2022).
